From patent EP0677039B1, “CYCLOBUTANE DERIVATIVES AS INHIBITORS OF […] SYNTHETASE AND PROTEIN […]” (Abbott Laboratories, priority 1993, dated 1995) come the findings set out here.

The subject of one assay is Cholesterol Synthesis. Description: In vivo inhibition of cholesterol synthesis. Particulars: Cynomolgus monkeys, 2 males and 2 females per group, 20 mg/kg, po, daily for a total of 5 days; average. How it is done: Monkeys, Cynomolgus, 2 males and 2 females per group, Controls: 3.7-6.1 Kg body weight, Dosed animals: 4.8-5.6 Kg body weight) were fasted overnight and bled in the morning. Plasma samples were prepared and analyzed for total cholesterol, HDL-cholesterol and triglycerides. […] Dosing was continued daily for a total of 5 days. Prior to the last dose the animals were fasted overnight and bled after dosing but before feeding. Plasma samples (anticoagulated with EDTA) were prepared and analyzed as before. One-sample t-tests were calculated to test for significant change within a group across the experiment.
As for `CCCN(Cc1ccc(Oc2ccccc2)cc1)C(=O)[C@H]1[C@@H](C(=O)O)[C@H](C(=O)O)[C@@H]1C(=O)N(CCC)Cc1ccc(Oc2ccccc2)cc1` (racemic) [Example 17, (1α,2β,3β,4α)-1,2-Di[N-propyl-N-(4-phenoxybenzyl)aminocarbonyl]cyclobutane-3,4-dicarboxylic acid], the “Total plasma cholesterol was lowered” value is 15.5%.

A further assay deals with T1, Rat liver microsomal squalene synthetase (Rattus norvegicus, UniProt Q02769).
T1 construct: Rat liver microsome, the source of enzyme; from tissue; host or cells: rat liver microsomes
T1 sequence (Q02769 1-416): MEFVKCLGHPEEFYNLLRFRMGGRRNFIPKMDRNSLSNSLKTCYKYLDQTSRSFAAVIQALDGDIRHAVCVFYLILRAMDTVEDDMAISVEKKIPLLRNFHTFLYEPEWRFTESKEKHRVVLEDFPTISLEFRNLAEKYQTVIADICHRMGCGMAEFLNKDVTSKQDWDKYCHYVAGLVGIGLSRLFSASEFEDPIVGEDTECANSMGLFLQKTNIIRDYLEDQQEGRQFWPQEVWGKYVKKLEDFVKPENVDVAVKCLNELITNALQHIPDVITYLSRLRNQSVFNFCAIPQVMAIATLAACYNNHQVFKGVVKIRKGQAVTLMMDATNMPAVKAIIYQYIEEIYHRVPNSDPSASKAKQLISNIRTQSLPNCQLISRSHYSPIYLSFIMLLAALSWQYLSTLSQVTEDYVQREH
Description: In vitro inhibition of squalene synthetase. It counts as biochemical. Particulars: 10 µM test compound; rat liver microsomes, labelled farnesyl pyrophosphate, 10 minutes at 37 °C; compared to controls with no test compound. In a few lines: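 Rat liver microsomes converted labelled farnesyl pyrophosphate to squalene under nitrogen. Ethanolic KOH stopped the reaction, and squalene was extracted into hexane and separated on alumina before counting. Percent inhibition was taken at 10 µM (or 1 µM) versus compound-free controls.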
As to `CCCN(Cc1ccc(Oc2ccc3ccccc3c2)cc1)C(=O)C1C(C(=O)O)C(C(=O)O)C1C(=O)N(CCC)Cc1ccc(Oc2ccc3ccccc3c2)cc1` (stereo not drawn) [Example 88, (1α,2β,3β,4α)-1,2-Di[N-propyl-N-(4-naphth-2-yloxybenzyl)aminocarbonyl]cyclobutane-3,4-dicarboxylic acid], 10 µM produced 86% inhibition.
On to `CCCN(Cc1ccc(Oc2ccccc2)c(C)c1)C(=O)C1C(C(=O)O)C(C(=O)O)C1C(=O)N(CCC)Cc1ccc(Oc2ccccc2)c(C)c1` (stereo not drawn) [Example 89C, (1α,2β,3β,4α)-1-2-Di{N-propyl-[3-methyl-4-phenoxybenzyl]aminocarbonyl}cyclobutane-3,4-dicarboxylic acid], for which the inhibition – broadly, the percentage by which the read-out fell short of the control – at 10 µM was 88%.
`CCCN(Cc1ccc(Oc2ccc(C)cc2)cc1)C(=O)C1C(C(=O)O)C(C(=O)O)C1C(=O)N(CCC)Cc1ccc(Oc2ccc(C)cc2)cc1` (stereo not drawn) [Example 90, (1α,2β,3β,4α)-1,2-Di[N-propyl-N-(4-(4-methyl-1-phenoxy)benzyl)aminocarbonyl]cyclobutane-3,4-dicarboxylic acid] came in with an inhibition at 10 µM of 53%.
Take `CCCN(Cc1ccc(Oc2cccc3ccccc23)cc1)C(=O)C1C(C(=O)O)C(C(=O)O)C1C(=O)N(CCC)Cc1ccc(Oc2cccc3ccccc23)cc1` (stereo not drawn) [Example 91, (1α,2β,3β,4α)-1,2-Di[N-propyl-N-(4-naphth-1-yloxybenzyl)aminocarbonyl]cyclobutane-3,4-dicarboxylic acid]: the inhibition at 10 µM was determined as 62%.
In turn, `CCCN(Cc1ccc(Oc2ccccc2)cc1)C(=O)C1C(C(=O)O)C(C(=O)NCC(=O)O)C1C(=O)N(CCC)Cc1ccc(Oc2ccccc2)cc1` (stereo not drawn) [Example 106, (1α,2β,3β,4α)-1,2-Di[N-propyl-N-(4-phenoxybenzyl)aminocarbonyl]cyclobutane-3-4-dicarboxylic acid mono-Glycine amide] returned an inhibition at 10 µM of 92%.
Compound `CCCN(Cc1ccc(C(=O)c2ccccc2)cc1)C(=O)C1C(C(=O)O)C(C(=O)O)C1C(=O)N(CCC)Cc1ccc(C(=O)c2ccccc2)cc1` (stereo not drawn) [Example 118B, (1α,2β,3β,4α)-1,2-Di[N-propyl-N-(4-benzoylbenzyl)aminocarbonyl]cyclobutane-3,4-carboxylic acid] yielded an inhibition at 10 µM of 51%.
For the compound `CN(Cc1ccc(Oc2ccccc2)cc1)C(=O)NC1C(NC(=O)N(C)Cc2ccc(Oc3ccccc3)cc2)C(C(=O)O)C1C(=O)O` (stereo not drawn) [Example 120, (1α,2β,3β,4α)-1,2-Di[N-methyl-N-(4-phenoxybenzyl)aminocarbonylamino]cyclobutane-3,4-dicarboxylic acid], the inhibition at 10 µM came out at 54%.
`O=C(O)C1C(C(=O)O)C(C(=O)N(Cc2ccccc2)Cc2ccccc2)C1C(=O)N(Cc1ccccc1)Cc1ccccc1` (stereo not drawn) [Example 121, (1α,2β,3β,4α)-1,2-Di[N,N-dibenzylaminocarbonyl]cyclobutane-3,4-dicarboxylic acid] showed an inhibition at 10 µM of 44%.
With `O=C(O)C1C(C(=O)O)C(C(=O)N(Cc2ccccc2)Cc2ccc(Cl)cc2)C1C(=O)N(Cc1ccccc1)Cc1ccc(Cl)cc1` (stereo not drawn) [Example 122B, (1α,2β,3β,4α)-1,2-Di[N-benzyl-N-(4-chlorobenzyl)aminocarbonyl]cyclobutane-3,4-dicarboxylic acid], at 10 µM the inhibition was 57%.
“(1α,2β,3β,4α)-1,2-Di[N-propyl-N-(4-phenoxybenzyl)aminocarbonyl]-3,4-di[(hydroxyimino)methyl]-cyclobutane [Example 79B]”: the % Inhibition (in general, the relative decrease from the control value, in per cent) at 10 µM came to 83%.

Still in this assay, the particulars now being: values marked * in Table 1: 1 µM test compound; rat liver microsomes, labelled farnesyl pyrophosphate, 10 minutes at 37 °C.
The compound `CCCN(Cc1ccc(Oc2ccccc2)cc1)C(=O)C1C(C(=O)O)C(C(=O)Nc2nnn[nH]2)C1C(=O)N(CCC)Cc1ccc(Oc2ccccc2)cc1` (stereo not drawn) [Example 92B, (1α,2β,3β,4a)-1,2-Di[N-propyl-N-(4-phenoxybenzyl)aminocarbonyl]cyclobutane-3-[N-(5-tetrazolyl)]carboxamide-4-carboxylic acid] displayed an inhibition at 1 µM of 80%.
Turning to `CCCN(Cc1ccc(Oc2ccccc2)cc1)C(=O)C1C(C(=O)O)C(C(=O)N2CCCC2C(=O)O)C1C(=O)N(CCC)Cc1ccc(Oc2ccccc2)cc1` (stereo not drawn) [Example 107, (1α,2β,3β,4α)-1,2-Di[N-propyl-N-(4-phenoxybenzyl)aminocarbonyl]cyclobutane-3,4-dicarboxylic acid mono-d,l-Proline amide], the inhibition at 1 µM came to 75%.
The same measure, in the same setting: next, `CCCN(Cc1ccc(Oc2ccccc2)cc1)C(=O)C1C(C(=O)O)C(C(=O)N(C)CC(=O)O)C1C(=O)N(CCC)Cc1ccc(Oc2ccccc2)cc1` (stereo not drawn) [Example 108, (1α,2β,3β,4α)-1,2-Di[N-propyl-N-(4-phenoxybenzyl)aminocarbonyl]cyclobutane-3,4-dicarboxylic acid mono-Sarcosine amide]: 59%; `CCCN(Cc1ccc(Oc2ccccc2)cc1)C(=O)C1C(C(=O)O)C(C(=O)NC(CC(=O)O)C(=O)O)C1C(=O)N(CCC)Cc1ccc(Oc2ccccc2)cc1` (stereo not drawn) [Example 109, (1α,2β,3β,4α)-1,2-Di[N-propyl-N-(4-phenoxybenzyl)aminocarbonyl]cyclobutane-3,4-dicarboxylic acid mono-d,l-Aspartic acid amide]: 78%.
Regarding `CCCN(Cc1ccc(Oc2ccccc2)cc1)C(=O)C1C(C(=O)O)C(C(=O)NCCC(=O)O)C1C(=O)N(CCC)Cc1ccc(Oc2ccccc2)cc1` (stereo not drawn) [Example 111, (1α,2β,3β,4α)-1,2-Di[N-propyl-N-(4-phenoxybenzyl)aminocarbonyl]cyclobutane-3,4-dicarboxylic acid mono-β-Alanine amide], testing at 1 µM gave an inhibition of 49%.
Compound `CCCN(Cc1ccc(Oc2ccccc2)cc1)C(=O)CC1C(CC(=O)N(CCC)Cc2ccc(Oc3ccccc3)cc2)C(C(=O)O)C1C(=O)O` (stereo not drawn) [Example 127C, (1α,2β,3β,4α)-1,2-Di-[N-propyl-N-(4-phenoxybenzyl)aminocarbonylmethyl]-cyclobutane-3,4-dicarboxylic acid] registered an inhibition at 1 µM of 68%.
The compound `O=C(O)CC1C(CC(=O)O)C(C(=O)N(Cc2ccccc2)Cc2ccc(Oc3ccccc3)cc2)C1C(=O)N(Cc1ccccc1)Cc1ccc(Oc2ccccc2)cc1` (stereo not drawn) [Example 128F, (1α,2β,3β,4α)-1,2-Di{N-benzyl-N-[(4-phenoxy)benzyl]aminocarbonyl)cyclobutane-3,4-diacetic acid] had an inhibition at 1 µM of 80%.
The same measure, in the same setting: to `CCCN(Cc1ccc(Oc2ccccc2)cc1)C(=S)C1C(C(=O)O)C(C(=O)O)C1C(=S)N(CCC)Cc1ccc(Oc2ccccc2)cc1` (stereo not drawn) [Example 130B, (1α,2β,3β,4α)-1,2-Di[N-propyl-N-(4-phenoxybenzyl)aminothiocarbonyl]cyclobutane-3,4-dicarboxylic acid] belongs 48%.
As for “(1α,2β,3β,4α)-1,2-Di[N-propyl-N-(4-(3,4-methylenedioxyphenoxy)benzyl)aminocarbonyl]cyclobutane-3,4-carboxylic acid [Example 119C]”, the “% Inhibition at 1 µM” value was 45* %.
Turning to “(1α,2β,3β,4α)-1,2-Di[N-propyl-N-(4-phenoxybenzyl)aminocarbonyl]cyclobutane-3,4-dicarboxylic acid mono-d-Norleucine amide [Example 112]”, the “% Inhibition at 1 µM” value is listed as 21* %.
Regarding “(1α,2β,3β,4α)-1,2-Di[N-propyl-N-(4-phenoxybenzyl)aminocarbonyl]cyclobutane-3,4-dicarboxylic acid mono-l-Norleucine amide [Example 113]”, the “% Inhibition at 1 µM” value was 31* %.

The assay is the same for the next values; noted with them: values marked * in Table 1: 1 µM test compound; rat liver microsomes, labelled farnesyl pyrophosphate, 10 minutes at 37 °C; 1 µM.
In the case of “(1α,2β,3β,4α)-1,2-Di[N-propyl-N-(4-phenoxybenzyl)aminocarbonyl]cyclobutane-3-phenoxycarbonyl-4-carboxylic acid [Example 105A]”, the “% Inhibition at 1 µM” value is reported as 48* %.
As to “(1α,2β,3β,4α)-1,2-Di[N-propyl-N-(4-phenoxybenzyl)aminocarbonyl]cyclobutane-3-phenoxycarbonyl-4-carboxylic acid [Example 105B]”, the “% Inhibition at 1 µM” value was 57* %.
